Read-outs that look alike come from different tables or passages of the source.
How the values were obtained:
[1] = test system: Zika virus, Dengue, Yellow Fever Virus, West Nile Virus; experiment: organism not typed; format: cell-based; settings: read-out: EC50, viral replication
[2] = test system: Puerto Rica strain of infectious Zika virus; experiment: microbe, parasite or virus in culture; format: cell-based; settings: Vero
[3] = test system: Rift Valley Fever Virus (RVFV); experiment: microbe, parasite or virus in culture; format: cell-based
[4] = Maximum tolerated dose (MTD) in mice; format: in vivo; settings: AG129 mice; for Alive/total / MDD ± SD (average day of death) / Mean wt. change (g) ± SD: q 3 d × 3; for Alive/total / MDD ± SD (average day of death): 14 days; for Mean wt. change (g) ± SD: weight on 0 and 2 days post-initial treatment
Description: Without wishing to be bound by theory, the purpose of this study is to further identify the MTD and dosing frequency that can be used for Isis-11 (E2) in future antiviral efficacy studies.
Animals: 21 AG129 mice produced by an in-house colony were used. Groups of animals were assigned by weight to experimental groups and individually marked with ear tags.
Test agent: Isis-11 (E2) was provided by University of Utah for testing in the mouse model.
[…] Additional treatments were administered at various time points. Mice were monitored for mortality until 14 days post-initial treatment (dpi). Individual weights were measured daily 0-10 dpi and on 14 dpi.
Statistical analysis: Survival data were analyzed using the Wilcoxon log-rank survival analysis and all other statistical analyses were done using one-way ANOVA using a Bonferroni group comparison (Prism 5, GraphPad Software, Inc.).

[5] = test system: Gli-luciferace activity in the SUFU-KO-light cells; experiment: SUFU-KO-Light assay, inhibition of Gli-luciferase activity; format: cell-based; settings: read-out: IC50 (μM) SUFU-KO-Light; inhibition of Gli-luciferase activity; listed as Isis-11 (−isomer/E2)
From the text: IC50 SUFO-KO-Light values are for inhibition of Gli-luciferace activity in the SUFU-KO-light cells developed by the James Chen laboratory at Stanford University.

MB002 cells = experiment: MTT assay, cell proliferation; format: cell-based
Shh-NPD (Hh subcategory) = experiment: MTT assay, Medulloblastoma cell line; format: cell-based
Description: (§1) The EC50 values shown below in Table 9 were determined for Isis-11 (E2) by MTT assay in the Medulloblastoma cell lines as indicated.

UW-426 (Hh subcategory) = experiment: MTT assay, Medulloblastoma cell line; format: cell-based; settings: UW426
Description: as §1

[6] = test system: SUFU-KO-Light cells expressing Gli-luciferase; experiment: Dose-effect curves, dual-Glo luciferase, Compusyn; format: cell-based
SARS-CoV-2 [7] = settings: infected Vero cells, 24 hours post-infection, Western blot
[8] = Mouse PK evaluation, plasma, IV; settings: CD-1 mice; for AUC(0-inf): AUCInf; for MRT inf: MRTInf_obs
[9] = test system: Raji (Burkitt Lymphoma cell line); experiment: Raji cell viability / proliferation; settings: Homo sapiens, read-out: IC50, Raji cell proliferation
SARS-CoV-2 [10] = experiment: microbe, parasite or virus in culture; settings: Severe acute respiratory syndrome coronavirus 2, Vero C1008, read-out: EC50, inhibition of cell death
[11] = CD-1, mouse, in vivo, iv, 3 mg/kg, Mean, 3 mg/kg IV
[12] = CD-1, mouse, in vivo, iv, 3 mg/kg, Mouse 1, 3 mg/kg IV
[13] = CD-1, mouse, in vivo, iv, 3 mg/kg, Mouse 2, 3 mg/kg IV

SMILES: CN(C)CCCn1c(N)nc2ccc3c(c21)CC(CN(C)C)O3 (single isomer, unassigned) [Compound E2]
- EC50 [1]: 0.29 to 0.32 µM
- EC50 [2]: 0.08 µM
- activity relative to BCX4430 against RVFV [3]: 92 fold
- EC50 ([3]; Rift Valley fever virus): 0.45 µM
- Alive/total ([4]; 1.0 mg/kg/d): 3/3
- MDD ± SD (average day of death) ([4]; 1.0 mg/kg/d): >14.0 ± 0.0 days
- Mean wt. change (g) ± SD ([4]; 1.0 mg/kg/d): -1.2 ± 0.8 g
- tolerability ([4]; 3.2 mg/kg eod or q3d): well-tolerated
- mortality and weight loss ([4]; 3.2 mg/kg i.p.): no mortality or weight loss
- Alive/total ([4]; 3.2 mg/kg/d): 3/3
- MDD ± SD (average day of death) ([4]; 3.2 mg/kg/d): >14.0 ± 0.0 days
- Mean wt. change (g) ± SD ([4]; 3.2 mg/kg/d): -0.1 ± 0.8 g
- mortality (animals succumbing to toxicity) ([4]; 10 mg/kg i.p., eod or q3d): 2 of 5
- body weight ([4]; 10 mg/kg i.p., between 0 and 14 days after initial treatment): some transient weight loss, but an overall weight gain
- mortality ([4]; 32 mg/kg i.p., eod for 4 treatments or q3d for 3 treatments): all succumbed
- body weight ([4]; 32 mg/kg i.p., eod or q3d): weight loss
- tolerability, second study ([4]; 3.2 or 1.0 mg/kg/d once every third day): well-tolerated with no indication of toxicity
- tolerability ([4]; 10 or 32 mg/kg, eod or q3d): toxic
- toxicity, initial study ([4]; administered bid, once a day at total daily doses of 32, 10, or 3.2 mg/kg/d): substantial toxicity
- MTD at 14 days ([4]; mouse, in vivo, ip): 3.2 mg/kg
- IC50 [5]: 0.1 µM
- EC50 (MB002 cells; MB002): 0.43 µM
- IC50 (MB002 cells; MB002, read-out: Dose E2): 0.32 µM
- EC50 (Shh-NPD (Hh subcategory)): 0.72 µM
- EC50 (UW-426 (Hh subcategory)): 0.105 µM
- EC50 ([6]; read-out: Dose E2): 0.0635 µM
- EC50 ([6]; read-out: EC50 as single agent): 0.06 µM
- SARS-CoV-2 nucleocapsid protein levels (SARS-CoV-2 [7]): dose-dependent reduction of viral protein
- AUC_%Extrap_obs, Mean ([8]; 3 mg/kg IV): 22.3%
- AUC_%Extrap_obs, Mouse 1 ([8]; 3 mg/kg IV): 10.4%
- AUC_%Extrap_obs, Mouse 2 ([8]; 3 mg/kg IV): 18.9%
- AUC_%Extrap_obs, Mouse 3 ([8]; 3 mg/kg IV): 37.6%
- AUClast, Mean ([8]; 3 mg/kg IV): 439 ng·h/mL
- AUClast, Mouse 1 ([8]; 3 mg/kg IV): 472 ng·h/mL
- AUClast, Mouse 2 ([8]; 3 mg/kg IV): 360 ng·h/mL
- AUClast, Mouse 3 ([8]; 3 mg/kg IV): 487 ng·h/mL
- AUClast/D, Mean ([8]; 3 mg/kg IV): 146
- AUClast/D, Mouse 1 ([8]; 3 mg/kg IV): 157
- AUClast/D, Mouse 2 ([8]; 3 mg/kg IV): 120
- AUClast/D, Mouse 3 ([8]; 3 mg/kg IV): 162
- C0, Mean ([8]; 3 mg/kg IV): 794 ng/mL
- C0, Mouse 1 ([8]; 3 mg/kg IV): 861 ng/mL
- C0, Mouse 2 ([8]; 3 mg/kg IV): 801 ng/mL
- C0, Mouse 3 ([8]; 3 mg/kg IV): 720 ng/mL
- Cl_obs, Mean ([8]; 3 mg/kg IV): 91 mL/min/kg
- Cl_obs, Mouse 1 ([8]; 3 mg/kg IV): 95.0 mL/min/kg
- Cl_obs, Mouse 2 ([8]; 3 mg/kg IV): 113 mL/min/kg
- Cl_obs, Mouse 3 ([8]; 3 mg/kg IV): 64.1 mL/min/kg
- Vss_obs, Mean ([8]; 3 mg/kg IV): 71.1 L/kg
- Vss_obs, Mouse 1 ([8]; 3 mg/kg IV): 43.7 L/kg
- Vss_obs, Mouse 2 ([8]; 3 mg/kg IV): 82.5 L/kg
- Vss_obs, Mouse 3 ([8]; 3 mg/kg IV): 87.0 L/kg
- Plasma concentration, Mean ([8]; 3 mg/kg IV, 0.083 h): 457 ng/mL
- Plasma concentration, Mouse 1 ([8]; 3 mg/kg IV, 0.083 h): 445 ng/mL
- Plasma concentration, Mouse 2 ([8]; 3 mg/kg IV, 0.083 h): 452 ng/mL
- Plasma concentration, Mouse 3 ([8]; 3 mg/kg IV, 0.083 h): 473 ng/mL
- Plasma concentration, Mean ([8]; 3 mg/kg IV, 0.25 h): 155 ng/mL
- Plasma concentration, Mouse 1 ([8]; 3 mg/kg IV, 0.25 h): 118 ng/mL
- Plasma concentration, Mouse 2 ([8]; 3 mg/kg IV, 0.25 h): 143 ng/mL
- Plasma concentration, Mouse 3 ([8]; 3 mg/kg IV, 0.25 h): 203 ng/mL
- Plasma concentration, Mean ([8]; 3 mg/kg IV, 0.5 h): 98 ng/mL
- Plasma concentration, Mouse 1 ([8]; 3 mg/kg IV, 0.5 h): 158 ng/mL
- Plasma concentration, Mouse 2 ([8]; 3 mg/kg IV, 0.5 h): 60.2 ng/mL
- Plasma concentration, Mouse 3 ([8]; 3 mg/kg IV, 0.5 h): 75.5 ng/mL
- Plasma concentration, Mean ([8]; 3 mg/kg IV, 1 h): 51.1 ng/mL
- Plasma concentration, Mouse 1 ([8]; 3 mg/kg IV, 1 h): 64.0 ng/mL
- Plasma concentration, Mouse 2 ([8]; 3 mg/kg IV, 1 h): 42.7 ng/mL
- Plasma concentration, Mouse 3 ([8]; 3 mg/kg IV, 1 h): 46.5 ng/mL
- Plasma concentration, Mean ([8]; 3 mg/kg IV, 2 h): 27.2 ng/mL
- Plasma concentration, Mouse 1 ([8]; 3 mg/kg IV, 2 h): 31.9 ng/mL
- Plasma concentration, Mouse 2 ([8]; 3 mg/kg IV, 2 h): 26.8 ng/mL
- Plasma concentration, Mouse 3 ([8]; 3 mg/kg IV, 2 h): 22.8 ng/mL
- Plasma concentration, Mean ([8]; 3 mg/kg IV, 4 h): 19.0 ng/mL
- Plasma concentration, Mouse 1 ([8]; 3 mg/kg IV, 4 h): 25.4 ng/mL
- Plasma concentration, Mouse 2 ([8]; 3 mg/kg IV, 4 h): 11.7 ng/mL
- Plasma concentration, Mouse 3 ([8]; 3 mg/kg IV, 4 h): 19.8 ng/mL
- Plasma concentration, Mean ([8]; 3 mg/kg IV, 8 h): 8.9 ng/mL
- Plasma concentration, Mouse 1 ([8]; 3 mg/kg IV, 8 h): 8.79 ng/mL
- Plasma concentration, Mouse 2 ([8]; 3 mg/kg IV, 8 h): 7.76 ng/mL
- Plasma concentration, Mouse 3 ([8]; 3 mg/kg IV, 8 h): 10.2 ng/mL
- Plasma concentration, Mean ([8]; 3 mg/kg IV, 24 h): 6.9 ng/mL
- Plasma concentration, Mouse 1 ([8]; 3 mg/kg IV, 24 h): 4.57 ng/mL
- Plasma concentration, Mouse 2 ([8]; 3 mg/kg IV, 24 h): 4.10 ng/mL
- Plasma concentration, Mouse 3 ([8]; 3 mg/kg IV, 24 h): 12.1 ng/mL
- AUC(0-inf) [8, 11]: 485 ng·h/mL
- AUC(0-inf) [8, 12]: 526 ng·h/mL
- AUC(0-inf) [8, 13]: 444 ng·h/mL
- MRT inf [8, 11]: 9.9 h
- MRT inf [8, 12]: 7.67 h
- MRT inf [8, 13]: 12.2 h
- half-life ([8]; CD-1, mouse, in vivo, iv, 3 mg/kg, T1/2, Mouse 2, 3 mg/kg IV): 14.2 h
- IC50 [9]: 0.2 µM
- EC50 (SARS-CoV-2 [10]): 0.142 µM

From patent US12227512B2, “Benzimidazoles and methods of using same” (priority 2019, dated 2025)
